Measurements from ChEMBL document CHEMBL5365402, “Phytochemical investigation of Asarum sieboldii var. seoulense and the phenotypic profiles of its constituents against a Parkinson's Disease olfactory cell line” (Bioorg Med Chem Lett, 2023).
Calls of active or inactive are those of the source. No cut-off for these calls is given here.

Experiments:
Format in all cases: functional, subcellular
ONS [1] = assay: Anti-parkinson's disease activity in human ONS cells assessed as negative mitochondrial marker intensity in cytoplasm at 5 uM by heat map analysis
ONS [2] = assay: Anti-parkinson's disease activity in human ONS cells assessed as negative mitochondrial marker intensity in outer region of cytoplasm at 5 uM by heat map analysis
ONS [3] = assay: Anti-parkinson's disease activity in human ONS cells assessed as negative mitochondrial marker intensity in inner region of cytoplasm at 5 uM by heat map analysis
ONS [4] = assay: Anti-parkinson's disease activity in human ONS cells assessed as lysosome marker intensity in cytoplasm at 5 uM by heat map analysis
ONS [5] = assay: Anti-parkinson's disease activity in human ONS cells assessed as lysosome marker intensity in outer region of cytoplasm at 5 uM by heat map analysis
ONS [6] = assay: Anti-parkinson's disease activity in human ONS cells assessed as lysosome marker intensity in inner region of cytoplasm at 5 uM by heat map analysis
ONS [7] = assay: Anti-parkinson's disease activity in human ONS cells assessed as early endosome marker intensity in cytoplasm at 5 uM by heat map analysis
ONS [8] = assay: Anti-parkinson's disease activity in human ONS cells assessed as early endosome marker intensity in outer region of cytoplasm at 5 uM by heat map analysis
ONS [9] = assay: Anti-parkinson's disease activity in human ONS cells assessed as early endosome marker intensity in inner region of cytoplasm at 5 uM by heat map analysis
ONS [10] = assay: Anti-parkinson's disease activity in human ONS cells assessed as alpha-tubulin marker intensity in cytoplasm at 5 uM by heat map analysis
ONS [11] = assay: Anti-parkinson's disease activity in human ONS cells assessed as alpha-tubulin marker intensity in inner region of cytoplasm at 5 uM by heat map analysis
ONS [12] = assay: Anti-parkinson's disease activity in human ONS cells assessed as alpha-tubulin marker intensity in outer region of cytoplasm at 5 uM by heat map analysis
ONS [13] = assay: Anti-parkinson's disease activity in human ONS cells assessed as LC3B marker intensity in cytoplasm at 5 uM by heat map analysis
ONS [14] = assay: Anti-parkinson's disease activity in human ONS cells assessed as LC3B marker intensity in outer region of cytoplasm at 5 uM by heat map analysis
ONS [15] = assay: Anti-parkinson's disease activity in human ONS cells assessed as LC3B marker intensity in inner region of cytoplasm at 5 uM by heat map analysis

SMILES | Activity (ONS [1]) | Activity (ONS [2]) | Activity (ONS [3]) | Activity (ONS [4]) | Activity (ONS [5]) | Activity (ONS [6]) | Activity (ONS [7]) | Activity (ONS [8]) | Activity (ONS [9]) | Activity (ONS [10]) | Activity (ONS [11]) | Activity (ONS [12]) | Activity (ONS [13]) | Activity (ONS [14]) | Activity (ONS [15])
COc1cc([C@H]2OC[C@H]3[C@@H]2CO[C@H]3c2ccc3c(c2)OCO3)ccc1O | inactive | inactive | inactive | inactive | inactive | inactive | inactive | inactive | inactive |  |  |  |  |  | 
CCC(=O)c1cc2c(cc1OC)OCO2 | inactive | inactive | inactive | inactive | inactive | inactive | inactive | inactive | inactive |  |  |  |  |  | 
C=CCc1cc2c(cc1OC)OCO2 |  |  |  | Active | Active | Active | Active | Active | Active | Active | Active | Active |  |  | 
c1cc2c(cc1[C@H]1OC[C@H]3[C@@H]1CO[C@@H]3c1ccc3c(c1)OCO3)OCO2 | inactive | inactive | inactive | inactive | inactive | inactive | inactive | inactive | inactive |  |  |  |  |  | 
O=C(O)c1ccc(O)cc1 |  |  |  | Active | Active | Active | Active | Active | Active | Active | Active | Active |  |  | 
C/C=C\C=C/CC/C=C/C=C/C(=O)NCC(C)C |  |  |  | Active | Active | Active | Active | Active | Active | Active | Active | Active |  |  | 
CCC(=O)c1cc2c(cc1O)OCO2 | inactive | inactive | inactive | inactive | inactive | inactive | inactive | inactive | inactive |  |  |  |  |  | 
CCC(=O)c1ccc2c(c1)OCO2 |  |  |  | Active | Active | Active | Active | Active | Active | Active | Active | Active |  |  | 
O=C(O)/C=C/c1ccc(O)cc1 | inactive | inactive | inactive | inactive | inactive | inactive | inactive | inactive | inactive |  |  |  |  |  | 
COc1cc([C@H]2OC[C@H]3[C@@H]2CO[C@@H]3c2ccc3c(c2)OCO3)ccc1O | Active | Active | Active |  |  |  |  |  |  |  |  |  | Active | Active | Active
C/C=C/C=C/CC/C=C/C=C/C(=O)NCC(C)C | Active | Active | Active |  |  |  |  |  |  |  |  |  | Active | Active | Active
C/C=C\CC/C=C/C=C/C(=O)NCC(C)C |  |  |  | Active | Active | Active | Active | Active | Active | Active | Active | Active |  |  | 
c1cc2c(cc1[C@H]1OC[C@H]3[C@@H]1CO[C@H]3c1ccc3c(c1)OCO3)OCO2 |  |  |  | Active | Active | Active | Active | Active | Active | Active | Active | Active |  |  | 
C=CCc1cc(OC)c(OC)c(OC)c1 |  |  |  | Active | Active | Active | Active | Active | Active | Active | Active | Active |  |  | 
COc1cc(C(=O)O)ccc1O |  |  |  | Active | Active | Active | Active | Active | Active | Active | Active | Active |  |  | 
C=CCc1cc(OC)c(O)c(OC)c1 |  |  |  | Active | Active | Active | Active | Active | Active | Active | Active | Active |  |  | 
COc1cc(/C=C/C(=O)O)ccc1O |  |  |  | Active | Active | Active | Active | Active | Active | Active | Active | Active |  |  | 
CCC(=O)c1cc(OC)c(O)cc1O |  |  |  | Active | Active | Active | Active | Active | Active | Active | Active | Active |  |  | 
C/C=C/C=C\CC/C=C/C=C/C(=O)NCC(C)C | Active | Active | Active |  |  |  |  |  |  |  |  |  | Active | Active | Active
